Test results as given in ChEMBL document CHEMBL3997780, “Facile synthesis and antiproliferative activity of 7H-benzo[7,8]chromeno[2,3-d]pyrimidin-8-amines” (Eur J Med Chem, 2017).
The source made the active and inactive calls. The rule behind the calls is not given here.

What was measured:
A549 [1] = experiment: Cytotoxicity against human A549 cells assessed as decrease in cell viability by MTT assay; type: functional, cell-based
MOLT-4 [2] = experiment: Cytotoxicity against human MOLT4 cells assessed as decrease in cell viability by MTT assay; type: functional, cell-based
HeLa = experiment: Cytotoxicity against human HeLa cells assessed as decrease in cell viability by MTT assay; type: functional, cell-based
A549 [3] = experiment: Induction of apoptosis in human A549 cells assessed as change in cell morphology at IC50 after 24 hrs by acridine orange/ethidium bromide staining-based fluorescence microscopic method; type: functional
MOLT-4 [4] = experiment: Induction of apoptosis in human MOLT4 cells assessed as change in cell morphology at IC50 after 24 hrs by acridine orange/ethidium bromide staining-based fluorescence microscopic method; type: functional
MOLT-4 [5] = experiment: Induction of apoptosis in human MOLT4 cells assessed as early apoptotic cells at IC50 after 24 hrs by annexin V-FITC/propidium iodide staining-based flow cytometric method (reference value: 2.18%); type: functional
MOLT-4 [6] = experiment: Induction of apoptosis in human MOLT4 cells assessed as late apoptotic cells at IC50 after 24 hrs by annexin V-FITC/propidium iodide staining-based flow cytometric method (reference value: 0.02%); type: functional
MOLT-4 [7] = experiment: Induction of apoptosis in human MOLT4 cells assessed as necrotic cells at IC50 after 24 hrs by annexin V-FITC/propidium iodide staining-based flow cytometric method (reference value: 0.03%); type: functional
MOLT-4 [8] = experiment: Induction of apoptosis in human MOLT4 cells assessed as viable cells at IC50 after 24 hrs by annexin V-FITC/propidium iodide staining-based flow cytometric method (reference value: 97.78%); type: functional
A549 [9] = experiment: Induction of apoptosis in human A549 cells assessed as early apoptotic cells at IC50 after 24 hrs by annexin V-FITC/propidium iodide staining-based flow cytometric method (reference value: 0.93%); type: functional
A549 [10] = experiment: Induction of apoptosis in human A549 cells assessed as late apoptotic cells at IC50 after 24 hrs by annexin V-FITC/propidium iodide staining-based flow cytometric method (reference value: 0.06%); type: functional
A549 [11] = experiment: Induction of apoptosis in human A549 cells assessed as necrotic cells at IC50 after 24 hrs by annexin V-FITC/propidium iodide staining-based flow cytometric method relative to control; type: functional
A549 [12] = experiment: Induction of apoptosis in human A549 cells assessed as viable cells at IC50 after 24 hrs by annexin V-FITC/propidium iodide staining-based flow cytometric method (reference value: 99.01%); type: functional

| SMILES | IC50 (A549 [1]) [µM] | IC50 (MOLT-4 [2]) [µM] | IC50 (HeLa) [µM] | further results |
| --- | --- | --- | --- | --- |
| COc1ccc(OC)c(C2c3ccc4ccccc4c3Oc3ncnc(Nc4ccccc4F)c32)c1 (configuration not stated) | 6.3 | 5.2 | 6.9 | Activity (A549 [3]): Active; Activity (MOLT-4 [4]): Active; Activity (MOLT-4 [5]): 47.03%; Activity (MOLT-4 [6]): 43.61%; Activity (MOLT-4 [7]): 1.18%; Activity (MOLT-4 [8]): 8.18% |
| Cc1ccc(Nc2ncnc3c2C(c2ccccc2)c2ccc4ccccc4c2O3)c(C)c1 (configuration not stated) | 11.2 | 8.9 | 14.6 |  |
| COc1cc(C2c3ccc4ccccc4c3Oc3ncnc(Nc4ccccc4)c32)cc(OC)c1OC (configuration not stated) | 18.6 | 9.8 | 20.7 |  |
| COc1ccc(OC)c(C2c3ccc4ccccc4c3Oc3ncnc(Nc4ccc(Br)cc4)c32)c1 (configuration not stated) | 26.8 | 20.4 | 16.7 |  |
| Clc1ccccc1CNc1ncnc2c1C(c1ccccc1)c1ccc3ccccc3c1O2 (configuration not stated) | 9.6 | 11.7 | 15.4 |  |
| c1ccc(CCNc2ncnc3c2C(c2ccccc2)c2ccc4ccccc4c2O3)cc1 (configuration not stated) | 68.5 | 16.9 | 50.2 |  |
| COc1ccc(CCNc2ncnc3c2C(c2ccccc2)c2ccc4ccccc4c2O3)c(OC)c1 (configuration not stated) | 18.9 | 14.5 | 43.5 |  |
| c1ccc(Nc2ncnc3c2C(c2ccccc2)c2ccc4ccccc4c2O3)cc1 (configuration not stated) | 12.5 | 6.6 | 6.4 |  |
| COc1ccc(OC)c(C2c3ccc4ccccc4c3Oc3ncnc(Nc4ccc(F)cc4)c32)c1 (configuration not stated) | 8.4 | 6.8 | 10.5 |  |
| CCc1ccc(Nc2ncnc3c2C(c2ccccc2)c2ccc4ccccc4c2O3)cc1 (configuration not stated) | 17.4 | 17.6 | 14.5 |  |
| Fc1ccccc1Nc1ncnc2c1C(c1ccccc1)c1ccc3ccccc3c1O2 (configuration not stated) | 5.4 | 12.8 | 10.3 | Activity (A549 [3]): Active; Activity (MOLT-4 [4]): Active; Activity (A549 [9]): 34.92%; Activity (A549 [10]): 2.72%; Activity (A549 [11]): 0.29%; Activity (A549 [12]): 62.07% |
| COc1cc(C2c3ccc4ccccc4c3Oc3ncnc(NCc4ccccc4)c32)cc(OC)c1OC (configuration not stated) | 26.5 | 10.4 | 44.6 |  |
| COc1ccc(Nc2ncnc3c2C(c2cc(OC)ccc2OC)c2ccc4ccccc4c2O3)cc1 (configuration not stated) | 7.2 | 6.9 | 10.6 |  |
| COc1ccc(Nc2ncnc3c2C(c2cc(OC)c(OC)c(OC)c2)c2ccc4ccccc4c2O3)cc1 (configuration not stated) | 46.5 | 33.5 | > 100 |  |
| COc1ccc(OC)c(C2c3ccc4ccccc4c3Oc3ncnc(Nc4ccc(Cl)cc4)c32)c1 (configuration not stated) | 14.8 | 7.4 | 15.9 |  |
| COc1ccc(Nc2ncnc3c2C(c2ccccc2)c2ccc4ccccc4c2O3)c(OC)c1 (configuration not stated) | 10.9 | 6.5 | 15.9 |  |
| Clc1ccc(Nc2ncnc3c2C(c2ccccc2)c2ccc4ccccc4c2O3)cc1 (configuration not stated) | 13.7 | 16.4 | 19.9 |  |
| c1ccc(CNc2ncnc3c2C(c2ccccc2)c2ccc4ccccc4c2O3)cc1 (configuration not stated) | 10.9 | 12.7 | 5.9 |  |
| Brc1ccc(Nc2ncnc3c2C(c2ccccc2)c2ccc4ccccc4c2O3)cc1 (configuration not stated) | > 100 | 29.4 | 31.6 |  |
| COc1cc(C2c3ccc4ccccc4c3Oc3ncnc(NCc4ccccc4Cl)c32)cc(OC)c1OC (configuration not stated) | 22.2 | 14.5 | 33.2 |  |
